Assay results reported in ChEMBL document CHEMBL1152018, “Molecular design of novel PGI2 agonists without PG skeleton. II” (Bioorg Med Chem Lett, 1995).

Columns and labels:
[1] = biological target: Prostacyclin receptor (Homo sapiens, UniProt P43119); experiment: Displacement of [3H]iloprost from Prostaglandin I2 receptor of human platelets
[2] = organism: Homo sapiens; experiment: Inhibitory activity against ADP-induced platelet aggregation using human platelet rich plasma at a concentration of 4 uM by functional assay
[3] = organism: Cavia porcellus; experiment: Evaluated for ADP-induced antiaggregation of guinea pig platelets; assay type: functional
[4] = organism: Cavia porcellus; experiment: Effective dose for ex vivo inhibition of platelet aggregation for four hours in guinea pigs; assay type: functional, organism-based
[5] = organism: Canis familiaris; experiment: Evaluated for ADP-induced antiaggregation of dog platelets; assay type: functional; settings: Canis lupus familiaris

Prostacyclin receptor, sequence (P43119 whole entry): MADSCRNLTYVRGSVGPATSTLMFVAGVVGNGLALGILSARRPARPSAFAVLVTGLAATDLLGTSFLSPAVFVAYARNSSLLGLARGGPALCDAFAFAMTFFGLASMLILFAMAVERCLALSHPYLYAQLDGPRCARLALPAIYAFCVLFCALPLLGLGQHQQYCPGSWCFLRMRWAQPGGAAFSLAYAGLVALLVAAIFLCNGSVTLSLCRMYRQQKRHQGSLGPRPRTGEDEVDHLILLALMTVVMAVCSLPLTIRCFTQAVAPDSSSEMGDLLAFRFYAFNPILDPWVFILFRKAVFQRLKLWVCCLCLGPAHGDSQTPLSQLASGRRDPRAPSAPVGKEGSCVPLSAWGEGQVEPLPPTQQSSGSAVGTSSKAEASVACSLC

Compound | IC50 [1] [nM] | IC50 [2] [nM] | IC50 [3] [nM] | EC50 [4] [mg/kg] | IC50 [5] [nM]
C/C(C[C@H]1CCc2c(cccc2OCC(=O)O)C1)=N\OC(c1ccccc1)c1ccccc1 | 220 |  |  |  | 
CCC/C(C[C@H]1CCc2c(cccc2OCC(=O)O)C1)=N\OC(c1ccccc1)c1ccccc1 |  | 130 |  |  | 
C/C(CC1CCc2c(cccc2OCC(=O)O)C1)=N\OC(c1ccccc1)c1ccccc1 (configuration not stated) | 380 |  |  |  | 
CC/C(CC1CCc2c(cccc2OCC(=O)O)C1)=N\OC(c1ccccc1)c1ccccc1 (configuration not stated) | 150 | 70 |  |  | 
CCC/C(CC1CCc2c(cccc2OCC(=O)O)C1)=N\OC(c1ccccc1)c1ccccc1 (configuration not stated) [AP-227] | 150 |  | 1900 | 0.82 | 7300
C/C(CC1CCc2c(cccc2OCC(=O)O)C1)=N\OCc1ccccc1 (configuration not stated) | 5300 | 12000 |  |  | 
CCCCC[C@H](O)/C=C/[C@H]1[C@H](O)CC(=O)[C@@H]1CCCCCCC(=O)O [ALPROSTADIL] | 1400 | 70 |  |  | 
C/C(C[C@@H]1CCc2c(cccc2OCC(=O)O)C1)=N\OC(c1ccccc1)c1ccccc1 | 2200 | 1900 |  |  | 
CCC/C(CCC1CCCc2c(OCC(=O)O)cccc21)=N\OC(c1ccccc1)c1ccccc1 (configuration not stated) | 2100 | 2400 |  |  | 
